The values that follow come from patent US20240239799A1, “(S)-1-(5-((PYRIDIN-3-YL)THIO)PYRAZIN-2-YL)-4'H,6'H-SPIRO[PIPERIDINE-4,5'-PYRROLO [1,2-B]PYRAZOL]-4'-AMINE DERIVATIVES AND SIMILAR COMPOUNDS AS SHP2 INHIBITORS FOR THE TREATMENT OF E.G. CANCER” (C.N.C.C.S. S.C.A.R.L. COLLEZIONE NAZIONALE DEI COMPOSTI …, priority 2021, published 2024).

Where two headings read alike, the source gives them in different places.

For test [1], the target named is T1, SHP-2 enzyme (Met1-Leu525) (Homo sapiens, UniProt Q06124).
T1 construct: synthetized by Origene, Met1-Leu525, cat #TP750155; purchased Origene TP750155
T1 sequence (Q06124 1-525): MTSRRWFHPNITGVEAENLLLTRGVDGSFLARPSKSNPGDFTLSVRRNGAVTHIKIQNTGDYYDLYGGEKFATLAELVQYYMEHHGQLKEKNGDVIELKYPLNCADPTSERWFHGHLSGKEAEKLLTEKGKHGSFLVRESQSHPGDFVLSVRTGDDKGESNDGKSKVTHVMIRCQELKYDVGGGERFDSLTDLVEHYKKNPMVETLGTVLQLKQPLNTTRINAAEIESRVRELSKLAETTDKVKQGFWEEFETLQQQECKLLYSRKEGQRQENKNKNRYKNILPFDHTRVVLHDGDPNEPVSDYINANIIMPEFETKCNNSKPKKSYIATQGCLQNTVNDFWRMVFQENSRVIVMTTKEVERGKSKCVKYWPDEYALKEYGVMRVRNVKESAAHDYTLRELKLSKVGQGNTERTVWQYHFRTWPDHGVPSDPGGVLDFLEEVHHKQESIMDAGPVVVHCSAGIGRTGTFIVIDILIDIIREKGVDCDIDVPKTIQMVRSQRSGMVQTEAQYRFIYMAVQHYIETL
The test is described as follows: SHP2 inhibition enzymatic assay (DiFMUP substrate, IRS1 peptide activation). The test is classed as biochemical. The following applies: 0.5 nM SHP-2, 500 nM IRS1 peptide, 75 μM DiFMUP; read-out: SHP2wt - IC50.

For test [2], the target named is T2, SHP2 (Avi-G4SG4S-PTPN11(1-525)) (Homo sapiens, UniProt Q06124).
T2 construct: (Avi-G4SG4S-PTPN11(1-525)); purchased Viva Biotech Ltd
T2 sequence (Q06124 1-525): T1 sequence (Q06124 1-525)
The test is described as follows: Binding kinetic assay by surface plasmon resonance (SPR). The following applies: Biacore T200, single cycle kinetic, 1:1 Langmuir binding model; for koff: triplicate. On the procedure:
A binding assay for measuring SHP2 inhibitors binding kinetic was developed using a Biacore T200 Instrument (Cytiva, Sweden). […] Data analysis was performed by Biacore T200 Evaluation software (Cytiva), and kinetic parameters were evaluated by a global fitting according to a 1:1 Langmuir binding model. Each molecule was tested in triplicate on separate flow channels.

In test [3] the test system is phospho-ERK1/2 (Thr202/Tyr204) in KYSE-520 cells. The test is described as follows: Phospho-ERK cellular assay (TR-FRET). The format is cell-based. The following applies: KYSE-520 cells, 2 h at 37° C., read-out: pERK IC50. A digest of the protocol: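 KYSE-520 cells plated overnight, then exposed to compound for 2 h at 37° C and lysed. Phospho-ERK1/2 (Thr202/Tyr204) detected by TR-FRET with Eu-cryptate and D2 antibodies after overnight incubation at rt. IC50 from four-parameter fit, normalised to DMSO (0%) and no-cell (100%) controls.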

Take `N[C@@H]1c2ccnn2CC12CCN(c1cnc(Sc3ccnc4c3OC[C@@H]3CCCN43)cn1)CC2` [Example 13, (S)-1-(5-(((S)-6a,7,8,9-tetrahydro-6H-pyrido[3,2-b]pyrrolo[1,2-d][1,4]oxazin-4-yl)thio)pyrazin-2-yl)-4′H,6′H-spiro[piperidine-4,5′-pyrrolo[1,2-b]pyrazol]-4′-amine]: in test [1], the half-maximal inhibitory concentration (IC50) is not above 50 nM. Further, in test [2], the “Residence time 1/koff SPR” value came out at 3333 s and the off-rate (koff) came to 0.0003 s⁻¹. The IC50 in test [3] (Homo sapiens, KYSE-520, 2 h) was less than 100 nM.
In the case of `Nc1nc(N2CCC3(CC2)Cn2ncc(Cl)c2[C@H]3N)cnc1Sc1ccnc(N)c1Cl` [Example 5, (S)-1-(6-amino-5-((2-amino-3-chloropyridin-4-yl)thio)pyrazin-2-yl)-3′-chloro-4′H,6′H-spiro[piperidine-4,5′-pyrrolo[1,2-b]pyrazol]-4′-amine], the IC50 in test [1] is not above 50 nM. Also, in test [2], the “Residence time 1/koff SPR” value is 17007 s and the koff came out at 5.88e-05 s⁻¹. Besides, in test [3] (Homo sapiens, KYSE-520, 2 h), the half-inhibitory concentration (IC50) was less than 100 nM.
Taken in the same sequence, the figures for `N[C@@H]1c2ccnn2CC12CCN(c1cnc(Sc3ccn4ccnc4c3Cl)cn1)CC2` [Example 31, (S)-1-(5-((8-chloroimidazo[1,2-a]pyridin-7-yl)thio)pyrazin-2-yl)-4′H,6′H-spiro[piperidine-4,5′-pyrrolo[1,2-b]pyrazol]-4′-amine] were not above 50 nM, 12674 s, 7.89e-05 s⁻¹ and less than 100 nM.
Taken in the same sequence, the figures for `Nc1nccc(Sc2cnc(N3CCC4(CC3)Cn3nccc3[C@H]4N)cn2)c1Cl` [Example 6, (S)-1-(5-((2-amino-3-chloropyridin-4-yl)thio)pyrazin-2-yl)-4′H,6′H-spiro[piperidine-4,5′-pyrrolo[1,2-b]pyrazol]-4′-amine] were not above 50 nM, 2740 s, 0.000365 s⁻¹ and less than 100 nM.
`Nc1nccc(Sc2cnc(N3CCC4(CC3)Cn3ncc(F)c3[C@H]4N)cn2)c1Cl` [Example 9, (S)-1-(5-((2-amino-3-chloropyridin-4-yl)thio)pyrazin-2-yl)-3′-fluoro-4′H,6′H-spiro[piperidine-4,5′-pyrrolo[1,2-b]pyrazol]-4′-amine]: in test [1], the IC50 was not above 50 nM. For the same molecule, in test [2], the “Residence time 1/koff SPR” value turned out to be 9615 s and the dissociation rate constant (koff) was found to be 0.000104 s⁻¹. The IC50 in test [3] (Homo sapiens, KYSE-520, 2 h) was less than 100 nM.
For the molecule `N[C@@H]1c2ccnn2CC12CCN(c1ccc(Sc3cccc(Cl)c3Cl)nc1)CC2` [Example 84, (S)-1-(6-((2,3-dichlorophenyl)thio)pyridin-3-yl)-4′H,6′H-spiro[piperidine-4,5′-pyrrolo[1,2-b]pyrazol]-4′-amine], the IC50 was not above 50 nM in test [1] and less than 100 nM in test [3] (Homo sapiens, KYSE-520, 2 h).
For `N[C@@H]1c2ccnn2CC12CCN(c1cnc(Sc3ccn4c([N+](=O)[O-])cnc4c3Cl)cn1)CC2` [Example 52, (S)-1-(5-((8-chloro-3-nitroimidazo[1,2-a]pyridin-7-yl)thio)pyrazin-2-yl)-4′H,6′H-spiro[piperidine-4,5′-pyrrolo[1,2-b]pyrazol]-4′-amine], the half-inhibitory concentration (IC50) was not above 50 nM in test [1] and less than 100 nM in test [3] (Homo sapiens, KYSE-520, 2 h).
On the same counts, the results for `Cn1c(N2CCC3(CC2)Cn2nccc2[C@H]3N)ncc(Sc2ccnc(N)c2Cl)c1=O` [Example 76, (S)-5-((2-amino-3-chloropyridin-4-yl)thio)-2-(4′-amino-4′H,6′H-spiro[piperidine-4,5′-pyrrolo[1,2-b]pyrazol]-1-yl)-3-methylpyrimidin-4(3H)-one] are not above 50 nM and less than 100 nM.
Taken in the same sequence, the figures for `Nc1nc(N2CCC3(CC2)Cn2nc4c(c2[C@H]3N)CCC4)cnc1Sc1ccnc(N)c1Cl` [Example 20, (S)-1′-(6-amino-5-((2-amino-3-chloropyridin-4-yl)thio)pyrazin-2-yl)-1,2,3,8-tetrahydro-6H-spiro[cyclopenta[d]pyrrolo[1,2-b]pyrazole-7,4′-piperidin]-8-amine] were not above 50 nM and less than 100 nM.
On to `N[C@@H]1c2ccnn2CC12CCN(c1cnc3nc(Sc4ccnc(-n5cccn5)c4Cl)ccc3n1)CC2` [Example 72, (S)-1-(6-((3-chloro-2-(1H-pyrazol-1-yl)pyridin-4-yl)thio)pyrido[2,3-b]pyrazin-2-yl)-4′H,6′H-spiro[piperidine-4,5′-pyrrolo[1,2-b]pyrazol]-4′-amine], for which the IC50 is not above 50 nM in test [1] and 100 to 500 nM in test [3] (Homo sapiens, KYSE-520, 2 h).
For `Cn1c(N2CCC3(CC2)Cn2nccc2[C@H]3N)nc2nc(Sc3ccnc(N)c3Cl)cnc21` [Example 74, (S)-1-(5-((2-amino-3-chloropyridin-4-yl)thio)-1-methyl-1H-imidazo[4,5-b]pyrazin-2-yl)-4′H,6′H-spiro[piperidine-4,5′-pyrrolo[1,2-b]pyrazol]-4′-amine], the concentration for half-maximal inhibition (IC50) was 50 to 300 nM in test [1] and more than 500 nM in test [3] (Homo sapiens, KYSE-520, 2 h).
On to `Nc1nc(N2CCC3(CC2)Cn2nccc2[C@H]3N)cnc1Sc1cccnc1C(F)(F)F` [Example 3, (S)-1-(6-amino-5-((2-(trifluoromethyl)pyridin-3-yl)thio)pyrazin-2-yl)-4′H,6′H-spiro[piperidine-4,5′-pyrrolo[1,2-b]pyrazol]-4′-amine], for which the IC50 in test [1] is not above 50 nM; in test [3] (Homo sapiens, KYSE-520, 2 h), less than 100 nM.
For the molecule `Cc1nc(N2CCC3(CC2)Cn2nccc2[C@H]3N)c(CO)nc1Sc1ccnc(N)c1Cl` [Example 45, (S)-(6-((2-amino-3-chloropyridin-4-yl)thio)-3-(4′-amino-4′H,6′H-spiro[piperidine-4,5′-pyrrolo[1,2-b]pyrazol]-1-yl)-5-methylpyrazin-2-yl)methanol], the IC50 in test [1] is not above 50 nM; in test [3] (Homo sapiens, KYSE-520, 2 h), less than 100 nM.
As for `Cc1cn2ccc(Sc3ncc(N4CCC5(CC4)Cn4nccc4[C@H]5N)nc3N)c(Cl)c2n1` [Example 64, (S)-1-(6-amino-5-((8-chloro-2-methylimidazo[1,2-a]pyridin-7-yl)thio)pyrazin-2-yl)-4′H,6′H-spiro[piperidine-4,5′-pyrrolo[1,2-b]pyrazol]-4′-amine], the concentration for half-maximal inhibition (IC50) is not above 50 nM in test [1] and less than 100 nM in test [3] (Homo sapiens, KYSE-520, 2 h).
`Nc1nc(N2CCC3(CC2)Cn2nncc2[C@H]3N)cnc1Sc1ccnc(N)c1Cl` [Example 37, (S)-1-(6-amino-5-((2-amino-3-chloropyridin-4-yl)thio)pyrazin-2-yl)-4′H,6′H-spiro[piperidine-4,5′-pyrrolo[1,2-c][1,2,3]triazol]-4′-amine]: the half-maximal inhibitory concentration (IC50) in test [1] was not above 50 nM; in test [3] (Homo sapiens, KYSE-520, 2 h) it was 100 to 500 nM.
Regarding `Nc1nccc(Sc2ncc(N3CCC4(CC3)Cn3nccc3[C@H]4N)n3cncc23)c1Cl` [Example 30, (S)-1-(8-((2-amino-3-chloropyridin-4-yl)thio)imidazo[1,5-a]pyrazin-5-yl)-4′H,6′H-spiro[piperidine-4,5′-pyrrolo[1,2-b]pyrazol]-4′-amine], the half-maximal inhibitory concentration (IC50) in test [1] was more than 300 nM; in test [3] (Homo sapiens, KYSE-520, 2 h), more than 500 nM.
As for `Cc1nc(N2CCC3(CC2)Cn2nccc2[C@H]3N)cc(=O)n1-c1cccc(Cl)c1Cl` (single isomer, unassigned) [Example 77b], the concentration for half-maximal inhibition (IC50) in test [1] is more than 300 nM; in test [3], more than 500 nM.
As for `N[C@@H]1c2cccn2CC12CCN(c1cnc(Sc3ccnc(-n4cccn4)c3Cl)cn1)CC2` [Example 82, (S)-1-(5-((3-chloro-2-(1H-pyrazol-1-yl)pyridin-4-yl)thio)pyrazin-2-yl)-1′H,3′H-spiro[piperidine-4,2′-pyrrolizin]-1′-amine], the IC50 in test [1] was not above 50 nM; in test [3] (Homo sapiens, KYSE-520, 2 h), less than 100 nM.
Regarding `Nc1nccc(Sc2cnc(N3CCC4(CC3)Cn3nc5c(c3C4O)CCC5)c3cncn23)c1Cl` (centres unmarked) [Example 22, 1′-(5-((2-amino-3-chloropyridin-4-yl)thio)imidazo[1,5-a]pyrazin-8-yl)-1,2,3,8-tetrahydro-6H-spiro[cyclopenta[d]pyrrolo[1,2-b]pyrazole-7,4′-piperidin]-8-ol], the 50% inhibitory concentration (IC50) is more than 300 nM in test [1] and more than 500 nM in test [3] (Homo sapiens, KYSE-520, 2 h).
`N[C@@H]1c2ccnn2CC12CCN(c1cnc(Sc3ccnc(-n4cc(F)cn4)c3Cl)cn1)CC2` [Example 61, (S)-1-(5-((3-chloro-2-(4-fluoro-1H-pyrazol-1-yl)pyridin-4-yl)thio)pyrazin-2-yl)-4′H,6′H-spiro[piperidine-4,5′-pyrrolo[1,2-b]pyrazol]-4′-amine]: the half-maximal inhibitory concentration (IC50) was not above 50 nM in test [1] and less than 100 nM in test [3] (Homo sapiens, KYSE-520, 2 h).
